Values quoted from earlier work in US7235142B2, “Non-toxic corrosion-protection rinses and seals based on cobalt” (University of Dayton, priority 2002, dated 2007).

Details: pH 7

Compound | Solubility in Water [mM]
N.N.N.N.N.N.[Cl-].[Cl-].[Cl-].[Co+3] [Hexaammine cobalt (III) chloride] | 220
N.N.N.N.N.[Cl][Co]([Cl])[Cl] [Pentaammine cobalt (III) chloride] | 930
[O-][Cl+3]([O-])([O-])O [Sodium perchlorate] | 15000
[O-][Cl+3]([O-])([O-])[O-].[O-][Cl+3]([O-])([O-])[O-].[Sr+2] [Strontium perchlorate] | 11000
